Reference: ChEMBL document CHEMBL1130880, “Synthesis and in vitro cytotoxicity of C(20)(RS)-camptothecin analogues modified at both B (or A) and E ring” (Bioorg Med Chem Lett, 1998)

Assays:
Type in all cases: functional, cell-based
A 172 = test: Compound was evaluated for in vitro antiproliferative activity against A172 human CNS cancer cell line
Caov-3 cell line = test: Compound was evaluated for in vitro antiproliferative activity against CAOV-3 human ovarian cancer cell line
DLD-1 = test: Compound was evaluated for in vitro antiproliferative activity against DLD-1 human colon cancer cell line
[1] = system: KATO III stomach cancer cell line; test: Compound was evaluated for in vitro antiproliferative activity against KATO-III human gastric cancer cell line
L1210 = test: Compound was evaluated for in vitro antiproliferative activity against L1210 mouse leukemia cell line

Row | Compound | IC50 (A 172) [nM] | IC50 (Caov-3 cell line) [nM] | IC50 (DLD-1) [nM] | IC50 [1] [nM] | IC50 (L1210) [nM]
1 | CCC1(O)C(=O)OCc2c1cc1n(c2=O)Cc2cc3ccccc3nc2-1 (configuration not stated) | 29 | 32 | 102 | 448 | 35
2 | CCOCOCCC1(O)C(=O)OCc2c1cc1n(c2=O)Cc2c-1nc1cc3c(cc1c2CCl)OCCO3 (configuration not stated) | – | 3760 | 3880 | 5920 | –
3 | CCOCOCCC1(O)C(=O)OCc2c1cc1n(c2=O)Cc2c-1nc1ccccc1c2CCNC(C)C (configuration not stated) | 5460 | 24 | 2100 | 4210 | 14100
4 | COCOCCC1(O)C(=O)OCc2c1cc1n(c2=O)Cc2cc3ccccc3nc2-1 (configuration not stated) | 2620 | 560 | 1860 | 320 | 440
5 | COCOCCC1(O)C(=O)OCc2c1cc1n(c2=O)Cc2c-1nc1cc3c(cc1c2CCl)OCCO3 (configuration not stated) | 29 | 3 | 108 | 1460 | 307
6 | O=C1OCc2c(cc3n(c2=O)Cc2c-3nc3cc4c(cc3c2CCl)OCCO4)C1(O)CCO (configuration not stated) | 391 | 10 | 55 | 135 | 898
7 | CCC1(O)C(=O)OCc2c1cc1n(c2=O)Cc2c-1nc1ccccc1c2CCNC(C)C (configuration not stated) | 167 | 4 | 276 | 623 | 460
8 | CC(C)NCCc1c2c(nc3ccccc13)-c1cc3c(c(=O)n1C2)COC(=O)C3(O)CCO (configuration not stated) | 3560 | 483 | 619 | 4400 | 6730
9 | CCC1(O)C(=O)OCc2c1cc1n(c2=O)Cc2c-1nc1cc3c(cc1c2CCl)OCCO3 (configuration not stated) | 54 | 87 | 2780 | 6110 | 14000
10 | COCOCCC1(O)C(=O)OCc2c1cc1n(c2=O)Cc2c-1nc1ccccc1c2CCNC(C)C (configuration not stated) | 12200 | 91 | 549 | 3270 | –
